Laboratory results: patent publication US20250122183A1 (Pfizer Inc., priority 2023, published 2025)

Columns and labels:
[1] = molecular target: KAT7+JADE1+EAF6+ING5 4 protein complex (Homo sapiens (Human), UniProt O95251); test: KAT7 JADE1 assay (SAMDI-MS acetylation of H3 1-21 peptide); type: biochemical; settings: Morrison equation fit; replicate number in parentheses; read-out: KAT7 JADE1 Ki (nM) (replicate number)
[2] = molecular target: KAT6A Full length enzyme (Homo sapiens (Human), UniProt Q92794); test: KAT6A assay (SAMDI-MS acetylation of H3 1-21 peptide); type: biochemical; settings: Morrison equation fit; replicate number in parentheses; read-out: KAT6A Ki (nM) (replicate number)
KAT6A Full length enzyme, sequence (Q92794 other isoform, or with tags, fused parts or gaps): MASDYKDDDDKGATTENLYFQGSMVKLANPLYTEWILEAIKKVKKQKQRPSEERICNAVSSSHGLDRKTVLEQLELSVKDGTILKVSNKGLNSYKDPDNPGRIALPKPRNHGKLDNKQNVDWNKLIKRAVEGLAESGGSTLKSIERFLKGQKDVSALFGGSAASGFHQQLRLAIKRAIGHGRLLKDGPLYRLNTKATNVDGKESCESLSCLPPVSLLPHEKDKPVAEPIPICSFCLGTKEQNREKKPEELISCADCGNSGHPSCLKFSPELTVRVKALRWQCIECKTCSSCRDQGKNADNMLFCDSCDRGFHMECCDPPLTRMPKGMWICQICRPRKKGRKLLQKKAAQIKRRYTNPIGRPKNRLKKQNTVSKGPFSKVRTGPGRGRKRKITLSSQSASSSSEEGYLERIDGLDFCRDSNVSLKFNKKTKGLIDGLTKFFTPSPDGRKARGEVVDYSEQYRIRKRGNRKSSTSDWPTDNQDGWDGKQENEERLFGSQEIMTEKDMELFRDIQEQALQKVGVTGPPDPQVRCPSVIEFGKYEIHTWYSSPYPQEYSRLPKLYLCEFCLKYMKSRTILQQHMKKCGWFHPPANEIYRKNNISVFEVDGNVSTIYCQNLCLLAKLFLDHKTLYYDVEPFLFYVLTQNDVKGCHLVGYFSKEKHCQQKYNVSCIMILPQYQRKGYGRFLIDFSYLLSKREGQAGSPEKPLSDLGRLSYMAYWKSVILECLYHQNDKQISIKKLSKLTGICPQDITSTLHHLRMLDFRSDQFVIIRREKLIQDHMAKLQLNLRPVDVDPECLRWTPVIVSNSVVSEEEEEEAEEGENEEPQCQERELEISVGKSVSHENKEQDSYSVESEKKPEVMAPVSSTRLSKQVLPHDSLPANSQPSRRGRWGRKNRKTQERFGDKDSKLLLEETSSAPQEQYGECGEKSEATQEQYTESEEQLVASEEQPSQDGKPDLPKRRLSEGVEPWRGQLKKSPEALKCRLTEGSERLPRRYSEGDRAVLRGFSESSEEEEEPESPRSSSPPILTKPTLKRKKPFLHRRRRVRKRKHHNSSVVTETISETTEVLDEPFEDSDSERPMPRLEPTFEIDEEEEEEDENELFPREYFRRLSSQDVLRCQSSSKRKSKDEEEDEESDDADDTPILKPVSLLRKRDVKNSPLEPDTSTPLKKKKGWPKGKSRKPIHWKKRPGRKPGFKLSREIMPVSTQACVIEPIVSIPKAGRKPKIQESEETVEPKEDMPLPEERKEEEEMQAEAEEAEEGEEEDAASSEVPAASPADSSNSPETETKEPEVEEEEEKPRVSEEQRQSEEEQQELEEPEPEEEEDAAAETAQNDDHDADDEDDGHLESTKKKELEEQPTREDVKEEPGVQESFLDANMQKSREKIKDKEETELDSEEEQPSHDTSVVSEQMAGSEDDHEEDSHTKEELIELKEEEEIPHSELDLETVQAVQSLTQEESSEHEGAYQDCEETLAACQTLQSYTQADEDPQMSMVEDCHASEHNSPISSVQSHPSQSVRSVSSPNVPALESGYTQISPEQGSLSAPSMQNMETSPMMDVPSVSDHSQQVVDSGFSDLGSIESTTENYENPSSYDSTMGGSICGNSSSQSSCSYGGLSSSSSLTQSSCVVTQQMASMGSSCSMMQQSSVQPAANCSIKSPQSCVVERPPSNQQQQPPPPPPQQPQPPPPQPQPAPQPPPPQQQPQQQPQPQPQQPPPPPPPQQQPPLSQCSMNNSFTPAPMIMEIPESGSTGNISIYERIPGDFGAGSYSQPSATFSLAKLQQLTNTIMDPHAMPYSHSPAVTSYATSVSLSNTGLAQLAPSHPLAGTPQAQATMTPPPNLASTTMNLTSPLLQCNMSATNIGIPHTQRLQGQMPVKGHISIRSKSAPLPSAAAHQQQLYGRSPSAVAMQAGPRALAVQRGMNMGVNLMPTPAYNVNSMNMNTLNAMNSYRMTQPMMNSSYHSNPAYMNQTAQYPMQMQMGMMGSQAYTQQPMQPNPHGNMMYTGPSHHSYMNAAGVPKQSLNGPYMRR

Compound: COc1cccc(OC)c1S(=O)(=O)Nc1noc2cc(NC3COC3)cc(OC)c12 [Example 11, 2,6-dimethoxy-N-{4-methoxy-6-[(oxetan-3-yl)amino]-1,2-benzoxazol-3-yl}benzene-1-sulfonamide]
- Ki [1]: > 2340 nM
- Ki [2]: 31.1 nM

Compound: COc1cccc(OC)c1S(=O)(=O)Nc1noc2cc(NC3CCCC3)cc(OC)c12 [Example 12, N-[6-(cyclopentylamino)-4-methoxy-1,2-benzoxazol-3-yl]-2,6-dimethoxybenzene-1-sulfonamide]
- Ki [1]: > 2340 nM
- Ki [2]: 25.6 nM

Compound: COc1cccc(OC)c1S(=O)(=O)Nc1noc2cc(N[C@@H]3CCOC3)cc(OC)c12 [Example 13, 2,6-dimethoxy-N-(4-methoxy-6-{[(3R)-oxolan-3-yl]amino}-1,2-benzoxazol-3-yl)benzene-1-sulfonamide]
- Ki [1]: > 2340 nM
- Ki [2]: 25.5 nM

Compound: COc1cccc(OC)c1S(=O)(=O)Nc1noc2cc(Nc3ncco3)cc(OC)c12 [Example 17, 2,6-dimethoxy-N-{4-methoxy-6-[(1,3-oxazol-2-yl)amino]-1,2-benzoxazol-3-yl}benzene-1-sulfonamide]
- Ki [1]: 1230 nM
- Ki [2]: 1.9 nM

Compound: COc1cc2c(NS(=O)(=O)c3ccccc3)noc2cc1Nc1ccn(C)n1 [Example 21, N-{5-methoxy-6-[(1-methyl-1H-pyrazol-3-yl)amino]-1,2-benzoxazol-3-yl}benzenesulfonamide]
- Ki [1]: 625 nM
- Ki [2]: 7.9 nM

Compound: COc1cc2c(NS(=O)(=O)c3c(OC)cccc3OC)noc2cc1Nc1noc(C)n1 [Example 37, 2,6-dimethoxy-N-{5-methoxy-6-[(5-methyl-1,2,4-oxadiazol-3-yl)amino]-1,2-benzoxazol-3-yl}benzene-1-sulfonamide]
- Ki [1]: > 2340 nM
- Ki [2]: 15.9 nM

Compound: COc1cc2c(NS(=O)(=O)c3c(OC)cccc3OC)noc2cc1Nc1cc(C)nn1C [Example 38, N-{6-[(1,3-dimethyl-1H-pyrazol-5-yl)amino]-5-methoxy-1,2-benzoxazol-3-yl}-2,6-dimethoxybenzene-1-sulfonamide]
- Ki [1]: > 12500 nM
- Ki [2]: 60.4 nM

Compound: CCc1nc(Nc2cc3onc(NS(=O)(=O)c4c(OC)cccc4OC)c3cc2OC)no1 [Example 43, N-{6-[(5-ethyl-1,2,4-oxadiazol-3-yl)amino]-5-methoxy-1,2-benzoxazol-3-yl}-2,6-dimethoxybenzene-1-sulfonamide]
- Ki [1]: > 2340 nM
- Ki [2]: 55.5 nM

Compound: COc1cc2c(NS(=O)(=O)c3c(OC)cccc3OC)noc2cc1Nc1[nH]nc(C)c1C#N [Example 45, N-{6-[(4-cyano-3-methyl-1H-pyrazol-5-yl)amino]-5-methoxy-1,2-benzoxazol-3-yl}-2,6-dimethoxybenzene-1-sulfonamide]
- Ki [1]: 804 nM
- Ki [2]: 2.3 nM

Compound: COc1cc2c(NS(=O)(=O)c3c(OC)cccc3OC)noc2cc1Nc1[nH]nc2c1CNC2 [Example 49, 2,6-dimethoxy-N-{5-methoxy-6-[(2,4,5,6-tetrahydropyrrolo[3,4-c]pyrazol-3-yl)amino]-1,2-benzoxazol-3-yl}benzene-1-sulfonamide]
- Ki [1]: > 2340 nM
- Ki [2]: 4 nM

Compound: COc1cc2c(NS(=O)(=O)c3c(OC)cccc3OC)noc2cc1Nc1cc(C(C)C)nn1C [Example 51, 2,6-dimethoxy-N-(5-methoxy-6-{[1-methyl-3-(propan-2-yl)-1H-pyrazol-5-yl]amino}-1,2-benzoxazol-3-yl)benzene-1-sulfonamide]
- Ki [1]: > 4990 nM
- Ki [2]: > 377 nM

Compound: COc1cc2c(NS(=O)(=O)c3c(OC)cccc3OC)noc2cc1Nc1cc(C)nn1C(C)C [Example 52, 2,6-dimethoxy-N-(5-methoxy-6-{[3-methyl-1-(propan-2-yl)-1H-pyrazol-5-yl]amino}-1,2-benzoxazol-3-yl)benzene-1-sulfonamide]
- Ki [1]: > 12500 nM
- Ki [2]: 73.5 nM

Compound: COc1cc2c(NS(=O)(=O)c3c(OC)cccc3OC)noc2cc1Nc1ccn(C(C)C)n1 [Example 53, 2,6-dimethoxy-N-(5-methoxy-6-{[1-(propan-2-yl)-1H-pyrazol-3-yl]amino}-1,2-benzoxazol-3-yl)benzene-1-sulfonamide]
- Ki [1]: 441 nM
- Ki [2]: 19.8 nM
